Measurements: ChEMBL document CHEMBL1201862, “PubChem BioAssay data set” (2004)
Values belong to the compound of their own block, whether it stands above or below them. Activity calls are given as the source filed them.

Legend:
Leucine aminopeptidase = biological target: T1, Leucine aminopeptidase (Plasmodium falciparum 3D7, UniProt Q8IL11); test: P. falciparum M17LAP inhibitors, primary screen, biochemical, fluorogenic H-Leu-NHMec substrate, 1536-well (AID 1619); type: functional
T1 sequence (Q8IL11 whole entry): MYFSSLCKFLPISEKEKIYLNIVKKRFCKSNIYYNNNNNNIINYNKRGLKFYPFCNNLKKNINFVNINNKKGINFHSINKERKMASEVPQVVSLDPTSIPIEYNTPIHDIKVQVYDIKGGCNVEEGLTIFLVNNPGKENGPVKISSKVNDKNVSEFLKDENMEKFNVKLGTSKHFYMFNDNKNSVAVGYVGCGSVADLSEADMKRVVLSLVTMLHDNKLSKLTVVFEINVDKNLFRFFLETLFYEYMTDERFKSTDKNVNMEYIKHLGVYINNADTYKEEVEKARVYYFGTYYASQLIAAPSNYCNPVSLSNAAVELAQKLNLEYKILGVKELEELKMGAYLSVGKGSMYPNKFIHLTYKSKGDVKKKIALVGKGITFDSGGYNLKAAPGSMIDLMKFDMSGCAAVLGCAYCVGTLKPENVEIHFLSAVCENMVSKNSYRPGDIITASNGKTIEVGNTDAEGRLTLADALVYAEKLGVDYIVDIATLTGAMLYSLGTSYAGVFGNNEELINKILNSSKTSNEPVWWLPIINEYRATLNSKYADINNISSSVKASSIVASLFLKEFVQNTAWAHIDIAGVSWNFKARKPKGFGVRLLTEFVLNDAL

P388/ADR = test: cells; type: functional; conditions: Mus musculus
SN12K1 = test: cells; type: functional; conditions: Homo sapiens
P388 = test: cells; type: functional; conditions: Mus musculus
HEK293 = test: EBV LMP1 TES2 canonical NF-kB signalling blockers – cell-based, HEK293, luciferase, cherry-pick, dose response (AID 588343); type: functional; conditions: Homo sapiens
[1] = biological target: T2, Heat shock factor protein 1 (Mus musculus, UniProt P38532); test: decrease of HSF1-responsive luciferase luminescence – cell-based, NIH3T3, dose retest, confirmation (AID 2382); type: functional;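 also: NIH3T3 fibroblasts with HSF1-driven luciferase reporter stressed by proteasome inhibitor MG132; luminescence from HSF1-driven luciferase expression after 8 hours of MG132 stress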
T2 sequence (P38532 whole entry): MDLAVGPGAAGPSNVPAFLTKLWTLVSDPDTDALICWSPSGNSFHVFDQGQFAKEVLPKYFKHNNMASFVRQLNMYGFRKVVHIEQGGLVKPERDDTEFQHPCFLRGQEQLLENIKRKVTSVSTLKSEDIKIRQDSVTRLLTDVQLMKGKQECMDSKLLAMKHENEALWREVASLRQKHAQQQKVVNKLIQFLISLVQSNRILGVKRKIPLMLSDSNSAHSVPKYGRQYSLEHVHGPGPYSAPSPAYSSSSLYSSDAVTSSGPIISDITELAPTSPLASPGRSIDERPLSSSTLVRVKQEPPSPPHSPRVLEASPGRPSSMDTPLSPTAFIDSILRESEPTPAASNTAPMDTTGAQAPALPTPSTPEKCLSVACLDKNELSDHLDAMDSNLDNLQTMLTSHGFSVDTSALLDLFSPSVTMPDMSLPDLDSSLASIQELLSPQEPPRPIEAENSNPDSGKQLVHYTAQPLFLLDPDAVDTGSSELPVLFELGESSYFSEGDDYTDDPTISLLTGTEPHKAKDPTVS

[2] = growth inhibition of yeast DHODH-expressing 3D7 parasites – SYBR Green, dry powder samples, dose response (AID 1159570); type: functional, cell-based;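 also: parasite growth measured after 72 hours of compound exposure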
[3] = P. falciparum Dd2 growth inhibitors, dose response, SYBR Green, cherry-picked samples (AID 1159567); type: functional, cell-based
[4] = Dd2 malaria parasite growth inhibition potency – SYBR Green, dry powder samples, dose response (AID 1159566); type: functional, cell-based;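 also: potency for growth inhibition with lower SYBR green DNA signal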
[5] = growth inhibition of PfATP4-mutant resistant parasites – NITD609-resistant line, SYBR Green, dry powder, dose response (AID 1159571); type: functional, cell-based;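 also: parasites synchronized at ring stage by sorbitol before testing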
[6] = test system: Streptococcus sp. 'group A'; test: Streptococcus pyogenes SK(-)GAS viability under kanamycin – luminescence, BacTiterGlo, confirmation, counter-screen for streptokinase expression inhibitor project, dose response (AID 1900); type: functional, organism-based
Streptococcus = test: GAS UMAA2166 growth inhibition – luminescence, BacTiterGlo, counter-screen for streptokinase expression inhibitor project, dose response (AID 1915); type: functional, organism-based;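 also: potency for reduction of bacterial viability or growth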
[7] = biological target: T3, Short transient receptor potential channel 4 (Mus musculus, UniProt Q9QUQ5); test: calcium entry via TRPC4 opening agents – cell-based, HEK293 TRPC4/mu-opioid, Fluo-4 calcium, dose response (AID 434937); type: functional
T3 sequence (Q9QUQ5 whole entry): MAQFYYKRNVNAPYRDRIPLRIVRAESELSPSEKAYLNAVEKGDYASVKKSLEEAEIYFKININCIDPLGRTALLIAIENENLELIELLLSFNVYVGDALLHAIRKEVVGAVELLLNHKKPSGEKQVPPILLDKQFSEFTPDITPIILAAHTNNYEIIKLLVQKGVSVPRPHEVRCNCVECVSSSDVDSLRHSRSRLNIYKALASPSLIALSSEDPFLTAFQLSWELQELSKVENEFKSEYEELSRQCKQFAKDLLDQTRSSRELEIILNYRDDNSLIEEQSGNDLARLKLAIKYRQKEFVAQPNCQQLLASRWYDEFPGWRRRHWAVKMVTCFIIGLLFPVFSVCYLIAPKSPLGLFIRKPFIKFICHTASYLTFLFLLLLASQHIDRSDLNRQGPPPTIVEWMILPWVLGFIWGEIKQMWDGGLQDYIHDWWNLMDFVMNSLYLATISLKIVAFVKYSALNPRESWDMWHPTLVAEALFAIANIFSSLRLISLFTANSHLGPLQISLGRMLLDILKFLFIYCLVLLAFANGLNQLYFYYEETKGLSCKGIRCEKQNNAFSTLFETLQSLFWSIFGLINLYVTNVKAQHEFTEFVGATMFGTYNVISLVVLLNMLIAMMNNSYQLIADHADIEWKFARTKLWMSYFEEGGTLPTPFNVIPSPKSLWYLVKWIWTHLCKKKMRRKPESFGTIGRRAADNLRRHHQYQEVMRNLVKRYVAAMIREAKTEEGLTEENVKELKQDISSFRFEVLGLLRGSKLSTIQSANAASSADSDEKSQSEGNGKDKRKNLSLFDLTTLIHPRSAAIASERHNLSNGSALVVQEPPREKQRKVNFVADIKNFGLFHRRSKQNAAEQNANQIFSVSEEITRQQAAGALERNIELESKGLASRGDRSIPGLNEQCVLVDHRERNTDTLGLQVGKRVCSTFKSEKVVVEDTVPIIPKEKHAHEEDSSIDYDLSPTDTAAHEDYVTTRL

[8] = reduction of Shn3 3'UTR-driven luciferase in osteoblasts – cell-based, Clone20 osteoblasts, firefly luciferase, cherry-picked, dose response (AID 624132); type: functional;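 also: firefly luciferase luminescence from reporter carrying the Shn3 3'UTR in osteoblasts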
[9] = loss of viability in HepG2 cells – cell-based, CellTiter-Glo, cherry-picked, cytotoxicity control for Shn3 inhibitor project, dose response (AID 624134); type: functional
[10] = non-specific 3'UTR reporter inhibition in Clone20-Shn3RL – cell-based, Renilla luciferase, cherry-picked, counter-screen for Shn3 inhibitor project, dose response (AID 624133); type: functional
Cytochrome P450 2C19 = Cytochrome P450 2C19 (Homo sapiens, UniProt P33261); test: Cytochrome panel assay with activity outcomes. Panel member name: p450-cyp2c19 Compounds with AC50 equal or less than 10 uM are considered active; type: functional; conditions: read-out: AC50
[11] = biological target: T4, RNA-binding protein pos-1 (Caenorhabditis elegans, UniProt G5EF15); test: disruptors of C. elegans POS-1 RNA interaction – biochemical, fluorescence polarization, dose response (AID 1964);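 also: purified POS-1 fused to maltose binding protein made in E. coli; potency of compounds blocking POS-1 binding to fluorescent RNA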
T4 sequence (G5EF15 whole entry): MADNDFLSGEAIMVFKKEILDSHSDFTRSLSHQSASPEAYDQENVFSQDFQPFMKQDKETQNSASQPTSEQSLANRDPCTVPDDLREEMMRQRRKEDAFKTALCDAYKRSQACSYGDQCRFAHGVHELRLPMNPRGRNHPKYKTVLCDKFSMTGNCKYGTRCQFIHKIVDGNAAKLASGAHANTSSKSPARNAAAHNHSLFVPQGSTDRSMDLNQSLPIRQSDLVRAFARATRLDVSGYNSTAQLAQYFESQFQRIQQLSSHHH

[12] = biological target: T5, Zinc finger protein mex-5 (Caenorhabditis elegans, UniProt Q9XUB2); test: potency of MEX-5 RNA-binding blockers – biochemical, C. elegans, fluorescence polarization, dose response (AID 1960)
T5 sequence (Q9XUB2 whole entry): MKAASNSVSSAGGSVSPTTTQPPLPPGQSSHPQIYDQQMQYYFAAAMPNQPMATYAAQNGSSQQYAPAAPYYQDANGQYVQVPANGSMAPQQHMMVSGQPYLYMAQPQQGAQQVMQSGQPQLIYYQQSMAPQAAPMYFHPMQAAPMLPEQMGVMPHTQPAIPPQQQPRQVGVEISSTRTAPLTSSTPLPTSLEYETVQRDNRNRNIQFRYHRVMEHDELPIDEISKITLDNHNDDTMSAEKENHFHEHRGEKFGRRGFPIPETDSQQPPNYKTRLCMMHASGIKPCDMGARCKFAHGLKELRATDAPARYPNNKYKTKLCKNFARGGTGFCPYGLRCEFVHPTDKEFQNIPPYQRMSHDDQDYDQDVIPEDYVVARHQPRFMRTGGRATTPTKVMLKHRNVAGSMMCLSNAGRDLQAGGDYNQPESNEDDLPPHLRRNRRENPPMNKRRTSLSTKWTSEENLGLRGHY

[13] = biological target: T6, Polyadenylate-binding protein 1 (Homo sapiens, UniProt P11940); test: MLLE binding blockers, Cy5 peptide tracer – biochemical, fluorescence polarization, Cy5-PAM2 peptide, secondary, miRNA deadenylation inhibitor project, dose response (AID 602260); type: functional; conditions: read-out: IC50_Mean
[14] = biological target: T6, Polyadenylate-binding protein 1; test: MLLE domain peptide-binding blockers, IC50 – biochemical, fluorescence polarization, FITC-PAM2 peptide, dose response (AID 602259); type: functional; conditions: read-out: IC50_Mean

T6 sequence (P11940 whole entry, the tested form may be a part): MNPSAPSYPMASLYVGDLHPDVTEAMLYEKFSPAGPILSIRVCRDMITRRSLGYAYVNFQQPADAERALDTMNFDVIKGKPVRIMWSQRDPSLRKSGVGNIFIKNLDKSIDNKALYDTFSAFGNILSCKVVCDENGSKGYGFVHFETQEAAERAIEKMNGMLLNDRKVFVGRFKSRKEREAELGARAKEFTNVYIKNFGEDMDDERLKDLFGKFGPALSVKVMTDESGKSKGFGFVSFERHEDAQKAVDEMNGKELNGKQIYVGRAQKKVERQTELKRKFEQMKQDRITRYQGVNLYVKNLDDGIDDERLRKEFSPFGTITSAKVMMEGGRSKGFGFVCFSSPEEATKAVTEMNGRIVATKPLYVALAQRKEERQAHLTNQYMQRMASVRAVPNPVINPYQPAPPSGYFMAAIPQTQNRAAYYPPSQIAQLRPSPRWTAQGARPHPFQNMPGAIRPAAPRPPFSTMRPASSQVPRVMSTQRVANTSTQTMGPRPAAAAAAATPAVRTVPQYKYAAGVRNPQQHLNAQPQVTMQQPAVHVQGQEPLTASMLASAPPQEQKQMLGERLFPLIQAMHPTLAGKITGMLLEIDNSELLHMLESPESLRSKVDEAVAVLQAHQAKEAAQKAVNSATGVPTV
Chain of Cytochrome P450 2C19 (P33261 whole entry, the tested form may be a part): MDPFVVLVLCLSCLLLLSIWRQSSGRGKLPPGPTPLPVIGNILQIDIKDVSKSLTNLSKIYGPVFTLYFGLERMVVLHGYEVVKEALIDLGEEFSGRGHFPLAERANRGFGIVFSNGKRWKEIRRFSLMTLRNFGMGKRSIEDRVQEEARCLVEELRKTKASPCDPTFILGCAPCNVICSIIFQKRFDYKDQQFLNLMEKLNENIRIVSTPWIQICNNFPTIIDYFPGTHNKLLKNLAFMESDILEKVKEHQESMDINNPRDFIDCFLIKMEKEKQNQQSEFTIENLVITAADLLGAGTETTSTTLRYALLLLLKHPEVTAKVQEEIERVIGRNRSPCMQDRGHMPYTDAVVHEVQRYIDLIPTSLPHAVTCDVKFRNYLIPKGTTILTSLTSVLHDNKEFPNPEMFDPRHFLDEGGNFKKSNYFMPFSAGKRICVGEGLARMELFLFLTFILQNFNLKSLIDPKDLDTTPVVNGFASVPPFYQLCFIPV

IC50 (Leucine aminopeptidase): 13.2 µM (active)
Compound: Cc1ccc(C(=O)Nc2ccc(Oc3ccc(C(=O)O)c(C(=O)O)c3)cc2)cc1C

Compound: CC(C)CCCCCCCCCCCCC(=O)NCC(=O)NC1C(O)C(O)C(Nc2[nH]cnc3ncnc2-3)OC1C(O)CO (centres undefined)
GI50 (P388/ADR): 0.00128 µM (active) | GI50 (SN12K1): 0.00531 µM (active) | GI50 (P388): 0.000211 µM (active)

Compound: C=C1C(=O)OC2C=C(C)CC3C=C(CCC=C(C)CCC12)C(=O)O3 (centres undefined)
GI50 (P388/ADR): 22.1 µM (inactive) | GI50 (SN12K1): 58.3 µM (inactive) | GI50 (P388): 12.4 µM (inactive)

Compound: CC1Cc2ccccc2N1c1ncnc(N)c1[N+](=O)[O-] (centres undefined)
AC50 (HEK293): 2.41 µM (active)

IC50 (Leucine aminopeptidase): 27.7 µM (active) | EC50 [1]: > 195 µM (not active)
Compound: CCOC(=O)Cc1csc(NC(=O)NC2(C(F)(F)F)Oc3cc(Cl)c(Cl)cc3O2)n1

Compound: CC(C)(C)[S@@+]([O-])N1Cc2cc(C(=O)NCCc3ccncc3)nc(-c3cccc(-c4ccccc4)c3)c2[C@H]1CCO
AC50 [2]: 1.08 µM (active) | AC50 [3]: 0.414 µM (active) | AC50 [4]: 0.366 µM (active) | AC50 [5]: 0.537 µM (active)

Compound: Cc1ccccc1OCC(=O)NNC(=S)NC(=O)c1ccco1
EC50 [6]: 0.599 µM (active) | EC50 (Streptococcus): 2.45 µM (active) | EC50 [7]: 9.44 µM (active)

Compound: CN(Cc1nccn1C)C(=O)c1cc(COc2ccc3ncccc3c2)on1
AC50 [8]: 6.97 µM (active) | AC50 [9]: > 70 µM (inactive) | AC50 [10]: 36.8 µM (active)

IC50 (Leucine aminopeptidase): 15.7 µM (active) | AC50 (Cytochrome P450 2C19): 25.1 µM (inconclusive)
Compound: Cn1c(C(=O)O)c(CC(=O)NCC2COc3ccccc3O2)c2ccccc21 (centres undefined)

EC50 [7]: 2.11 µM (active)
Compound: CCOc1ccccc1CN1CCNC(=O)C1CC(=O)N(C)CCc1ccccn1 (centres undefined)

Compound: CC1=NN(C(N)=S)C(=O)C1N=Nc1cccc(C(=O)O)c1 (centres undefined)
EC50 [11]: 35.1 µM (active) | EC50 [12]: 22.7 µM (active) | AC50 (HEK293): 33.1 µM (active)

IC50 (Leucine aminopeptidase): 3.8 µM (active) | IC50 [13]: > 66 µM (inactive) | IC50 [14]: > 66 µM (inactive)
Compound: CC(Sc1ccc2c(c1)OCCO2)C(=O)Nc1ncc(Cl)cc1Cl (centres undefined)
